Test results reported in ChEMBL document CHEMBL1138946, “Toward stable N4-modified neurotensins for NTS1-receptor-targeted tumor imaging with 99mTc” (J Med Chem, 2006).
Starred links: 1 amine or outer side, 2 acyl side, 3 side chain; linkers in the order of their positions; H or OH if unused. Non-standard residues stand in square brackets, D forms with d. Residues, ends and D or L forms follow the SMILES beside them. Groups on a side chain read outwards from the residue. *: point of attachment. X1 = NC(N)=NCCCC(CN([C@@H](CCCN=C(N)N)C(=O)[*:2])[*:1])N[*:3]; X3 = NCCCCC(CN([C@@H](CCCN=C(N)N)C(=O)[*:2])[*:1])N[*:3]; Tle = CC(C)(C)[C@H](N)C(=O)O; X2 = NCCNCC(CNCCN)C(=O)*

Assays:
[1] = molecular target: T1, Neurotensin receptor type 1 (Homo sapiens, UniProt P30989); experiment: Displacement of [125I]Tyr3-NT from human NTS1R expressed in HT29 cells; assay type: cell-based, HT-29
[2] = molecular target: T1, Neurotensin receptor type 1; experiment: Displacement of [125I]Tyr3-NT from human NTS1R expressed in WiDr cells; assay type: cell-based
[3] = molecular target: T1, Neurotensin receptor type 1; experiment: Displacement of [125I]Tyr3-NT from NTS1R in human exocrine ductal pancreatic carcinoma

T1 sequence (P30989 whole entry): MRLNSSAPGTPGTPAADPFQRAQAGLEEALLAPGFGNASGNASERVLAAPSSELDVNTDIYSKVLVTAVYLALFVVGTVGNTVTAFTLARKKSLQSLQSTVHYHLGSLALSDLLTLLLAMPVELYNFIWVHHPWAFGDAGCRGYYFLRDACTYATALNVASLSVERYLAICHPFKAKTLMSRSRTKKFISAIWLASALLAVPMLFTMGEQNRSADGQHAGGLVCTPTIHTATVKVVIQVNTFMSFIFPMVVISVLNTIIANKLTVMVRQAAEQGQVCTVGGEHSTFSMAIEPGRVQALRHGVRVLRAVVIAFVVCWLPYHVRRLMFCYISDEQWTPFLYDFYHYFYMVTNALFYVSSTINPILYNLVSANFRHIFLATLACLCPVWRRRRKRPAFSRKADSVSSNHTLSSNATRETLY

Row | IC50 [1] [nM] | IC50 [2] [nM] | IC50 [3] [nM] | Compound
1 | 0.41 | 0.18 | – | CC[C@H](C)[C@H](NC(=O)[C@H](Cc1ccc(O)cc1)NC(=O)[C@@H]1CCCN1C(=O)[C@H](CCCN=C(N)N)NCC(CCCCN)NC(=O)CNC(=O)C(CNCCN)CNCCN)C(=O)N[C@@H](CC(C)C)C(=O)O (stereo partly drawn) [DEMOTENSIN 2] (H-[X3]([Gly-X2])PYIL-OH)
2 | 1.5 | 0.66 | – | CC(C)C[C@H](NC(=O)[C@@H](NC(=O)[C@H](Cc1ccc(O)cc1)NC(=O)[C@@H]1CCCN1C(=O)[C@H](CCCN=C(N)N)NCC(CCCCN)NC(=O)CNC(=O)C(CNCCN)CNCCN)C(C)(C)C)C(=O)O (stereo partly drawn) [DEMOTENSIN 3] (H-[X3]([Gly-X2])PY[Tle]L-OH)
3 | 0.85 | 0.51 | 2.9 | CC(C)C[C@H](NC(=O)[C@@H](NC(=O)[C@H](Cc1ccc(O)cc1)NC(=O)[C@@H]1CCCN1C(=O)[C@H](CCCN=C(N)N)NCC(CCCN=C(N)N)NC(=O)CNC(=O)C(CNCCN)CNCCN)C(C)(C)C)C(=O)O (stereo partly drawn) [DEMOTENSIN 4] (H-[X1]([Gly-X2])PY[Tle]L-OH)
4 | 0.32 | – | – | CC[C@H](C)[C@H](NC(=O)[C@H](Cc1ccc(O)cc1)NC(=O)[C@@H]1CCCN1C(=O)[C@H](CCCN=C(N)N)NC(=O)[C@H](CCCN=C(N)N)NC(=O)CNC(=O)C(CNCCN)CNCCN)C(=O)N[C@@H](CC(C)C)C(=O)O [Demotensin 1] (X2-GRRPYIL-OH)
